Literature values as cited in patent publication US20050287177A1, “Pharmaceutical compositions” (Glaxo Group Unlimited and Smithkline Beecham Corp., priority 2002, published 2005).

How the values were obtained:
[1] = colon versus small intestine
[2] = elimination

For `Cc1cn([C@H]2C[C@H](N=[N+]=[N-])[C@@H](CO)O2)c(=O)[nH]c1=O` [Zidovudine, 3′-azido-3′-deoxythymidine], the colonic absorption [1] is listed as “very low” and the terminal half-life [2] is listed as 1.5 to 2 h.
